target: GCN2 (Homo sapiens (Human), UniProt Q9P2K8); assay: GCN2 Biochemical Assay (TR-FRET, GFP-eIF2S1 substrate phosphorylation); conditions: read-out: IC50 (GCN2 Inhibitory Activity)
In short: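 In-house GCN2 (1.6 nM 2× stock) phosphorylates GFP-eIF2S1 (50 nM 2× stock) with ATP (0.2 mM 2× stock) and tRNA, pH 7.5, 70 min at room temperature; 10-point 3.16-fold compound series. TR-FRET detection with Tb-anti-phospho antibody, 2–3 h, Ex 340/Em 490/520 nm; artifact plate spiked with phospho-substrate.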

GCN2, sequence (Q9P2K8 whole entry): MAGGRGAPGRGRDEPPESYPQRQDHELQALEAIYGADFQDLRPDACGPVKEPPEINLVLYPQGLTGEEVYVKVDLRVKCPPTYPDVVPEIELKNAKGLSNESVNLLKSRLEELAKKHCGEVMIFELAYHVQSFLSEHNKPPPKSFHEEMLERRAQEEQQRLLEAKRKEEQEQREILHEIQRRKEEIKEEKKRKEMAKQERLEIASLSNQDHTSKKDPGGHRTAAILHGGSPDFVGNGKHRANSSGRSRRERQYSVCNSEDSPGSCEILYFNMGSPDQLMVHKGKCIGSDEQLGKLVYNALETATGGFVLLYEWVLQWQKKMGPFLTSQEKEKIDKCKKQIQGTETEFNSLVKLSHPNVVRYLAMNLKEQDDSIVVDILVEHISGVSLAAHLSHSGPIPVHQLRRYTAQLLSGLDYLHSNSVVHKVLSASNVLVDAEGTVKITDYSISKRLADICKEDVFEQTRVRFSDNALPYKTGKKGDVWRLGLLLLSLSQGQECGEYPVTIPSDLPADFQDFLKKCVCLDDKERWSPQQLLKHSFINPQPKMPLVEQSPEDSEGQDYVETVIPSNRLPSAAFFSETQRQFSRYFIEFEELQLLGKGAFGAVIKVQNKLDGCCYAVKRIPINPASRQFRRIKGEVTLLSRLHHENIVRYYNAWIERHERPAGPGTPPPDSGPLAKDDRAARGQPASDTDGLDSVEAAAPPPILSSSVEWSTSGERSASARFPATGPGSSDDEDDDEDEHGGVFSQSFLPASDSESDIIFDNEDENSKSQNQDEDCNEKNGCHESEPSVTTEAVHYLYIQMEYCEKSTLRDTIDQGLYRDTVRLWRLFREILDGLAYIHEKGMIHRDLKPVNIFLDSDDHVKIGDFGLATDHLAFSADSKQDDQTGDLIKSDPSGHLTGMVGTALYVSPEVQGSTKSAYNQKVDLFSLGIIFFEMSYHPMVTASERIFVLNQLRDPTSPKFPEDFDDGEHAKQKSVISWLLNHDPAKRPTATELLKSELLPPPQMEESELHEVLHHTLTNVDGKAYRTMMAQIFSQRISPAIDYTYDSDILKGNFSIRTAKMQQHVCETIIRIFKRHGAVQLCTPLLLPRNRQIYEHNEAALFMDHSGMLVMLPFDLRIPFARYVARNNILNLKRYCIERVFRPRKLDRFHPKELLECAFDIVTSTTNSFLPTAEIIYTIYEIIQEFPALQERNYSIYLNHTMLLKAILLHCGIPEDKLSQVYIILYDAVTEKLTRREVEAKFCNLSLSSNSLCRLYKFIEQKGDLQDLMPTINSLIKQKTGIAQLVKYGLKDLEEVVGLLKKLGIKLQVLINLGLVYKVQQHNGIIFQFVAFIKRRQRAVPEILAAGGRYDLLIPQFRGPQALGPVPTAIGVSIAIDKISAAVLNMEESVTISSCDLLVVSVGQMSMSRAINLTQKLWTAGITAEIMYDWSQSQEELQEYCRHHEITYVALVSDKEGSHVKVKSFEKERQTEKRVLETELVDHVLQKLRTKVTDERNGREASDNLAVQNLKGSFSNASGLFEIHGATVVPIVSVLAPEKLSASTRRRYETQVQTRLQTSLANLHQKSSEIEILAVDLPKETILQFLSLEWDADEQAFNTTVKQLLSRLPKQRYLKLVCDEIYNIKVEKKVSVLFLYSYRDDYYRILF

| SMILES | IC50 [µM] |
| --- | --- |
| Cc1cnc(Nc2cc(C)n(C)n2)nc1-c1c[nH]c2c(N3Cc4c(Br)cncc4C3=O)cccc12 [Example 289, 7-bromo-2-(3-(2-((1,5-dimethyl-1H-pyrazol-3-yl)amino)-5-methylpyrimidin-4-yl)-1H-indol-7-yl)-1,2-dihydro-3H-pyrrolo[3,4-c]pyridin-3-one] | < 0.01 |
| Cc1cnc(Nc2cc(C)n(C)n2)nc1-c1c[nH]c2c(N3Cc4ccc(NC(=O)C5CC5)cc4C3=O)cccc12 [Example 291, N-(2-(3-(2-((1,5-dimethyl-1H-pyrazol-3-yl)amino)-5-methylpyrimidin-4-yl)-1H-indol-7-yl)-3-oxoisoindolin-5-yl)cyclopropanecarboxamide] | < 0.01 |
| Cc1cnc(Nc2cc(C)n(C)n2)nc1-c1c[nH]c2c(N3Cc4cccc(NC(=O)c5ccccc5)c4C3=O)cccc12 [Example 293, N-(2-(3-(2-((1,5-dimethyl-1H-pyrazol-3-yl)amino)-5-methylpyrimidin-4-yl)-1H-indol-7-yl)-3-oxoisoindolin-4-yl)benzamide] | 0.1 to 1 |
| Cc1cnc(Nc2cc(C)n(C)n2)nc1-c1c[nH]c2c(N3Cc4c(NC(=O)c5ccccc5)cccc4C3=O)cccc12 [Example 294, N-(2-(3-(2-((1,5-dimethyl-1H-pyrazol-3-yl)amino)-5-methylpyrimidin-4-yl)-1H-indol-7-yl)-1-oxoisoindolin-4-yl)benzamide] | 0.01 to 0.1 |
| Cc1cnc(Nc2cc(C)n(C)n2)nc1-c1c[nH]c2c(N3Cc4c(NC(=O)C5CCCCC5)cccc4C3=O)cccc12 [Example 295, N-(2-(3-(2-((1,5-dimethyl-1H-pyrazol-3-yl)amino)-5-methylpyrimidin-4-yl)-1H-indol-7-yl)-1-oxoisoindolin-4-yl)cyclohexanecarboxamide] | 0.01 to 0.1 |
| Cc1cnc(Nc2cc(C)n(C)n2)nc1-c1c[nH]c2c(N3Cc4c(NC(=O)N5CCOCC5)cccc4C3=O)cccc12 [Example 296, N-(2-(3-(2-((1,5-dimethyl-1H-pyrazol-3-yl)amino)-5-methylpyrimidin-4-yl)-1H-indol-7-yl)-1-oxoisoindolin-4-yl)morpholine-4-carboxamide] | < 0.01 |
| Cc1cnc(Nc2cc(C)n(C)n2)nc1-c1c[nH]c2c(N3Cc4c(NC(=O)c5cccnc5)cccc4C3=O)cccc12 [Example 298, N-(2-(3-(2-((1,5-dimethyl-1H-pyrazol-3-yl)amino)-5-methylpyrimidin-4-yl)-1H-indol-7-yl)-1-oxoisoindolin-4-yl)nicotinamide] | < 0.01 |
| Cc1cnc(Nc2cc(C)n(C)n2)nc1-c1c[nH]c2c(N3Cc4c(NC(=O)c5cocn5)cccc4C3=O)cccc12 [Example 299, N-(2-(3-(2-((1,5-dimethyl-1H-pyrazol-3-yl)amino)-5-methylpyrimidin-4-yl)-1H-indol-7-yl)-1-oxoisoindolin-4-yl)oxazole-4-carboxamide] | < 0.01 |
| Cc1cnc(Nc2cc(C)n(C)n2)nc1-c1c[nH]c2c(N3Cc4c(NC(=O)C5CC5)cccc4C3=O)cccc12 [Example 300, N-(2-(3-(2-((1,5-dimethyl-1H-pyrazol-3-yl)amino)-5-methylpyrimidin-4-yl)-1H-indol-7-yl)-1-oxoisoindolin-4-yl)cyclopropanecarboxamide] | < 0.01 |
| Cc1cnc(Nc2cc(C)n(C)n2)nc1-c1c[nH]c2c(N3Cc4c(NC(=O)C5CCN(C)CC5)cccc4C3=O)cccc12 [Example 306, N-(2-(3-(2-((1,5-dimethyl-1H-pyrazol-3-yl)amino)-5-methylpyrimidin-4-yl)-1H-indol-7-yl)-1-oxoisoindolin-4-yl)-1-methylpiperidine-4-carboxamide] | < 0.01 |
| Cc1cnc(Nc2cc(C)n(C)n2)nc1-c1c[nH]c2c(N3Cc4c(NC(=O)C5CCCN(C)C5)cccc4C3=O)cccc12 (centres unmarked) [Example 307, N-(2-(3-(2-((1,5-dimethyl-1H-pyrazol-3-yl)amino)-5-methylpyrimidin-4-yl)-1H-indol-7-yl)-1-oxoisoindolin-4-yl)-1-methylpiperidine-3-carboxamide] | < 0.01 |

Second part, the compound after the results:

| IC50 [µM] | SMILES |
| --- | --- |
| < 0.01 | Cc1cnc(Nc2cc(C)n(C)n2)nc1-c1c[nH]c2c(N3Cc4cccnc4C3=O)cccc12 [Example 288, 6-(3-(2-((1,5-dimethyl-1H-pyrazol-3-yl)amino)-5-methylpyrimidin-4-yl)-1H-indol-7-yl)-5,6-dihydro-7H-pyrrolo[3,4-b]pyridin-7-one] |
| < 0.01 | Cc1cnc(Nc2cc(C)n(C)n2)nc1-c1c[nH]c2c(N3Cc4c(ccnc4Br)C3=O)cccc12 [Example 290, 4-bromo-2-(3-(2-((1,5-dimethyl-1H-pyrazol-3-yl)amino)-5-methylpyrimidin-4-yl)-1H-indol-7-yl)-2,3-dihydro-1H-pyrrolo[3,4-c]pyridin-1-one] |
| 0.1 to 1 | Cc1cnc(Nc2cc(C)n(C)n2)nc1-c1c[nH]c2c(N3Cc4cccc(NC(=O)C5CCCCC5)c4C3=O)cccc12 [Example 292, N-(2-(3-(2-((1,5-dimethyl-1H-pyrazol-3-yl)amino)-5-methylpyrimidin-4-yl)-1H-indol-7-yl)-3-oxoisoindolin-4-yl)cyclohexanecarboxamide] |
| < 0.01 | Cc1cnc(Nc2cc(C)n(C)n2)nc1-c1c[nH]c2c(N3Cc4c(NC(=O)c5ccccn5)cccc4C3=O)cccc12 [Example 297, N-(2-(3-(2-((1,5-dimethyl-1H-pyrazol-3-yl)amino)-5-methylpyrimidin-4-yl)-1H-indol-7-yl)-1-oxoisoindolin-4-yl)picolinamide] |
| < 0.01 | Cc1cnc(Nc2cc(C)n(C)n2)nc1-c1c[nH]c2c(N3Cc4c(NC(=O)c5ccncc5)cccc4C3=O)cccc12 [Example 301, N-(2-(3-(2-((1,5-dimethyl-1H-pyrazol-3-yl)amino)-5-methylpyrimidin-4-yl)-1H-indol-7-yl)-1-oxoisoindolin-4-yl)isonicotinamide] |
| < 0.01 | Cc1cnc(Nc2cc(C)n(C)n2)nc1-c1c[nH]c2c(N3Cc4c(NC(=O)c5ccnnc5)cccc4C3=O)cccc12 [Example 302, N-(2-(3-(2-((1,5-dimethyl-1H-pyrazol-3-yl)amino)-5-methylpyrimidin-4-yl)-1H-indol-7-yl)-1-oxoisoindolin-4-yl)pyridazine-4-carboxamide] |
| < 0.01 | Cc1cnc(Nc2cc(C)n(C)n2)nc1-c1c[nH]c2c(N3Cc4c(NC(=O)C5CCC(C)CC5)cccc4C3=O)cccc12 (centres unmarked) [Example 303, N-(2-(3-(2-((1,5-dimethyl-1H-pyrazol-3-yl)amino)-5-methylpyrimidin-4-yl)-1H-indol-7-yl)-1-oxoisoindolin-4-yl)-4-methylcyclohexane-1-carboxamide] |
| < 0.01 | Cc1cnc(Nc2cc(C)n(C)n2)nc1-c1c[nH]c2c(N3Cc4c(NC(=O)Cc5cccc(O)c5)cccc4C3=O)cccc12 [Example 304, N-(2-(3-(2-((1,5-dimethyl-1H-pyrazol-3-yl)amino)-5-methylpyrimidin-4-yl)-1H-indol-7-yl)-1-oxoisoindolin-4-yl)-2-(3-hydroxyphenyl)acetamide] |
| < 0.01 | Cc1cnc(Nc2cc(C)n(C)n2)nc1-c1c[nH]c2c(N3Cc4c(NC(=O)Cc5ccccc5)cccc4C3=O)cccc12 [Example 305, N-(2-(3-(2-((1,5-dimethyl-1H-pyrazol-3-yl)amino)-5-methylpyrimidin-4-yl)-1H-indol-7-yl)-1-oxoisoindolin-4-yl)-2-phenylacetamide] |

— patent publication US20240025884A1 (Dong-A ST Co., Ltd., priority 2022, published 2024)
